# According to patent US20240247080A1, “GLP1/GIP/NPY2 RECEPTOR TRIPLE AGONISTS” (Boehringer Ingelheim International GmbH, priority 2022, published 2024):
# Where two headings read alike, the source gives them in different places. Starred links: 1 amine or outer side, 2 acyl side, 3 side chain; linkers in the order of their positions; H or OH if unused. Positions of bridges follow the written chain, without caps; N, C: chain ends. Non-standard residues stand in square brackets, D forms with d. Groups on a side chain read outwards from the residue. Chains are numbered I, II in the order given. *: point of attachment. C20 diacid = O=C(O)CCCCCCCCCCCCCCCCCCC(=O)*; C18 diacid = O=C(O)CCCCCCCCCCCCCCCCC(=O)*; γGlu = O=C(O)[C@H](CCC(=O)[*:2])N[*:1]; εLys = N[C@@H](CCCCN[*:1])C(=O)[*:2]; NMeQ = CN[C@@H](CCC(N)=O)C(=O)O; AEEA = NCCOCCOCC(=O)O; Aib = CC(C)(N)C(=O)O; Ahx = NCCCCCC(=O)O
# Assays:
# hGLP1R = biological target: T1, hGLP1R (Homo sapiens, UniProt P43220); assay: hGLP1R CreLuc reporter gene assay in 0.5% and 100% plasma; format: cell-based; details: CreLuc reporter gene assay
# T1 construct: expressed in transfected cells; host or cells: HEK-293 cells carrying a CRE-luciferase reporter gene
# T1 sequence (P43220 24-463): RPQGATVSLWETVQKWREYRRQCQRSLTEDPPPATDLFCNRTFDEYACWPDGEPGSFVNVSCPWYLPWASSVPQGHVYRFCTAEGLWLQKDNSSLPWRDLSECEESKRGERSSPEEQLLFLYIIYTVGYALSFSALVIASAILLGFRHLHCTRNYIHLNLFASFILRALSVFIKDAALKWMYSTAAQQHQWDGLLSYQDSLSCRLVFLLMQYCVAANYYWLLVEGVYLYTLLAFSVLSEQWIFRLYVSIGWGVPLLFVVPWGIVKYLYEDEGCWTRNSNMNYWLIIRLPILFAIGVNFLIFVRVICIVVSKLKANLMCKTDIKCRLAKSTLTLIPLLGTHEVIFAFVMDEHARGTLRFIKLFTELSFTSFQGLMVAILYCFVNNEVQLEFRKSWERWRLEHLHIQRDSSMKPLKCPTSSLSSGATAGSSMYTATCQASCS
# Source text: (§1) Example 1: hGLPR/hGIPR/hNPY2R CreLuc Assay in 0.5% and 100% Plasma
# (§2) CHO and HEK-293 recombinant cell lines express a luciferase reporter gene under control of the cAMP responsive element (CRE). As a second recombinant protein the GLP-1 and NPY2 receptors were expressed in the reporter gene HEK cells, and the GIP receptor was expressed in the reporter gene CHO cells, respectively. Stimulation of these recombinant cells with an agonist leads to an increase of intracellular cAMP levels. In the presence of cAMP, the transcription factor CRE binding protein (CREB) binds to the CRE and to the CREB binding protein (CBP), which leads to transcription of the luciferase reporter gene. Peptides upon serial-dilution in 100% DMSO were transferred into 384-well assay plates with 5 μl pre-dispensed assay buffer (1×HBSS, 20 mM HEPES, pH7.4 supplemented with 0.5% human plasma) using acoustic dispensing on a Labcyte ECHO. Cryo-preserved transgenic reporter gene cells were thawed in assay buffer. 20 μl (10.000 cells/well) were added to the plate with the peptides and incubated for 4 hours at 37° C. in a humidified incubator. Following incubation, assay plates are equilibrated to room temperature, followed by addition of 25 μl of Bright-GIo™ Luciferase reagent, incubation at room temperature for 10 minutes and analysis of luminescence (Envision Reader). Concentration response evaluation of compounds was performed with 8 concentrations of peptides (covering four decades). EC50 values were calculated by non-linear regression using sigmoid concentration-response with variable slope. The same assays were run in the presence of 100% plasma with no additional buffer constituents.
# hGIPR = biological target: T2, hGIPR (Homo sapiens, UniProt P48546); assay: hGIPR CreLuc reporter gene assay in 0.5% and 100% plasma; format: cell-based; details: CreLuc reporter gene assay
# T2 construct: expressed in transfected cells; host or cells: CHO cells carrying a CRE-luciferase reporter gene
# T2 sequence (P48546 22-466): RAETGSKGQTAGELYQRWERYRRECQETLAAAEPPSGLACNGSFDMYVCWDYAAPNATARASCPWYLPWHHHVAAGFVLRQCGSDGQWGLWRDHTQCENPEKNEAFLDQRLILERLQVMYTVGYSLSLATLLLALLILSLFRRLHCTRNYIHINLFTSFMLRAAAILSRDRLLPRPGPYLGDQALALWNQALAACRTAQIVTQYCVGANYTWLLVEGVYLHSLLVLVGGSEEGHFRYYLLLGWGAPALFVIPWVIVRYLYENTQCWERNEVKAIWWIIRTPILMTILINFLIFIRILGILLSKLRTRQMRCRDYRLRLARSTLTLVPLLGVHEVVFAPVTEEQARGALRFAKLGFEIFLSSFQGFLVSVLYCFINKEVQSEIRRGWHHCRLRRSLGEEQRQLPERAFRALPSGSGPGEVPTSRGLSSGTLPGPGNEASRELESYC
# Source text: as §1, §2
# [1] = 0.5% human plasma, read-out: hGLP1R 0.5% hP
# [2] = 100% human plasma, read-out: hGLP1R 100% hP
# [3] = 0.5% human plasma, read-out: hGIPR 0.5% hP
# [4] = 100% human plasma, read-out: hGIPR 100% hP
Substance,EC50 (hGLP1R; [1]),EC50 (hGLP1R; [2]),EC50 (hGIPR; [3]),EC50 (hGIPR; [4])
"H-Y[Aib]EGTFTSDYSI[Aib]LEKQAQ[Aib]AFVEWLIK([εLys-γGlu-γGlu-γGlu-γGlu-γGlu-γGlu-C20 diacid])GGPSSGISLRHYYNWLTRQRY-NH2 [Compound 94, Y-Aib-E-G-T-F-T-S-D-Y-S-I-Aib-L-E-K-Q-A-Q-Aib-A-F-V-E-W-L-I-K(1,3)-GGPSSGISLRHYYNWLTRQRY-NH2.C20DA-gGlu-gGlu-gGlu-gGlu-gGlu-gGlu-eLys(1,2)]",0.09 nM,,0.22 nM,1.04 nM
"H-Y[Aib]EGTFTSDYSI[Aib]LEKQAQ[Aib]AFVEWLIK([εLys-γGlu-γGlu-γGlu-γGlu-γGlu-γGlu-C20 diacid])GGPSSAVSLRHYYNWLTRQRY-NH2 [Compound 33, Y-Aib-E-G-T-F-T-S-D-Y-S-I-Aib-L-E-K-Q-A-Q-Aib-A-F-V-E-W-L-I-K(1,3)-GGPSSAVSLRHYYNWLTRQRY-NH2.C20DA-gGlu-gGlu-gGlu-gGlu-gGlu-gGlu-eLys(1,2)]",0.14 nM,3.17 nM,0.25 nM,
"H-Y[Aib]EGTFTSDYSI[Aib]LEKQAQ[Aib]AFVQWLIK([εLys-γGlu-γGlu-γGlu-γGlu-γGlu-γGlu-C20 diacid])GGPSEGASLRHYYNWLTR[NMeQ]RY-NH2 [Compound 115, Y-Aib-E-G-T-F-T-S-D-Y-S-I-Aib-L-E-K-Q-A-Q-Aib-A-F-V-Q-W-L-I-K(1,3)-G-G-P-S-E-G-A-S-L-R-H-Y-Y-N-W-L-T-R-NMeQ-R-Y-NH2.C20DA-gGlu-gGlu-gGlu-gGlu-gGlu-gGlu-eLys(1,2)]",0.12 nM,,0.51 nM,
"H-Y[Aib]EGTFTSDYSI[Aib]LEKQAQ[Aib]EFVEWLIK([Ahx-γGlu-γGlu-γGlu-γGlu-γGlu-γGlu-C18 diacid])GGPSEGASLRHYYNWLTRQRY-NH2 [Compound 279, Y-Aib-E-G-T-F-T-S-D-Y-S-I-Aib-L-E-K-Q-A-Q-Aib-E-F-V-E-W-L-I-K(1,3)-GGPSEGASLRHYYNWLTRQRY-NH2.C18DA-gGlu-gGlu-gGlu-gGlu-gGlu-gGlu-AHX(1,2)]",,,0.71 nM,
"H-Y[Aib]EGTFTSDYSI[Aib]LEKQAQ[Aib]AFVEWLIK([γGlu-γGlu-γGlu-γGlu-γGlu-γGlu-C20 diacid])GGPSSGASLRHYYNWLTRQRY-NH2 [Compound 235, Y-Aib-E-G-T-F-T-S-D-Y-S-I-Aib-L-E-K-Q-A-Q-Aib-A-F-V-E-W-L-I-K(1,3)-GGPSSGASLRHYYNWLTRQRY-NH2.C20DA-gGlu-gGlu-gGlu-gGlu-gGlu-gGlu(1,2)]",0.12 nM,,0.34 nM,2.81 nM
"H-Y[Aib]EGTFTSDYSI[Aib]LEKQAQ[Aib]AFVQWLIK([εLys-γGlu-γGlu-γGlu-γGlu-γGlu-γGlu-C20 diacid])GGPRYYASLRHYYNWLTRQRY-NH2 [Compound 14, Y-Aib-E-G-T-F-T-S-D-Y-S-I-Aib-L-E-K-Q-A-Q-Aib-A-F-V-Q-W-L-I-K(1,3)-GGPRYYASLRHYYNWLTRQRY-NH2.C20DA-gGlu-gGlu-gGlu-gGlu-gGlu-gGlu-eLys(1,2)]",0.4 nM,,0.71 nM,
"H-Y[Aib]EGTFTSDYSI[Aib]LE[Aib]QAQ[Aib]AFVEWLIK([εLys-γGlu-γGlu-γGlu-γGlu-γGlu-γGlu-C20 diacid])GGPSSGASLRHYYNWLTRQRY-NH2 [Compound 199, Y-Aib-E-G-T-F-T-S-D-Y-S-I-Aib-L-E-Aib-Q-A-Q-Aib-A-F-V-E-W-L-I-K(1,3)-GGPSSGASLRHYYNWLTRQRY-NH2.C20DA-gGlu-gGlu-gGlu-glu-gGlu-gGlu-eLys(1,2)]",,,0.94 nM,

# Further substances by falling EC50 (hGIPR; [3]), results first:
EC50 (hGLP1R; [1]),EC50 (hGLP1R; [2]),EC50 (hGIPR; [3]),EC50 (hGIPR; [4]),Substance
,,0.62 nM,2.62 nM,"H-Y[Aib]EGTFTSDYSI[Aib]LEKQAQ[Aib]EFVEWLIK([γGlu-γGlu-γGlu-γGlu-C20 diacid])GGPSEGASLRHYYNWLTRQRY-NH2 [Compound 271, Y-Aib-E-G-T-F-T-S-D-Y-S-I-Aib-L-E-K-Q-A-Q-Aib-E-F-V-E-W-L-I-K(1,3)-GGPSEGASLRHYYNWLTRQRY-NH2.C20DA-gGlu-gGlu-gGlu-gGlu(1,2)]"
0.24 nM,,0.42 nM,,"H-Y[Aib]EGTFTSDYSI[Aib]LEKQAQ[Aib]AFVEWLIK([εLys-γGlu-γGlu-γGlu-γGlu-γGlu-γGlu-C20 diacid])GGQSSGASLRHYYNWLTRQRY-NH2 [Compound 123, Y-Aib-E-G-T-F-T-S-D-Y-S-I-Aib-L-E-K-Q-A-Q-Aib-A-F-V-E-W-L-I-K(1,3)-GGQSSGASLRHYYNWLTRQRY-NH2.C20DA-gGlu-gGlu-gGlu-gGlu-gGlu-gGlu-eLys(1,2)]"
0.44 nM,,0.38 nM,,"H-Y[Aib]EGTFTSDYSI[Aib]LEKQAE[Aib]AFVEWLIK([γGlu-γGlu-γGlu-γGlu-C20 diacid])GGPSEGASLRHYYNWLTRQRY-NH2 [Compound 280, Y-Aib-E-G-T-F-T-S-D-Y-S-I-Aib-L-E-K-Q-A-E-Aib-A-F-V-E-W-L-I-K(1,3)-GGPSEGASLRHYYNWLTRQRY-NH2.C20DA-gGlu-gGlu-gGlu-gGlu(1,2)]"
0.22 nM,,0.38 nM,,"I: H-Y[Aib]EGTFTSDYSI[Aib]LEKQAQ[Aib]EFVQWLIKGGPSEGASLRHYYNWLTRQRY-NH2 / II: {C18 diacid}-EEEEEE (amide I:28-II:C) [Compound 179, Y-Aib-E-G-T-F-T-S-D-Y-S-I-Aib-L-E-K-Q-A-Q-Aib-E-F-V-Q-W-L-I-K(1,3)-GGPSEGASLRHYYNWLTRQRY-NH2.C18DA-E-E-E-E-E-E(1,2)]"
0.16 nM,,0.36 nM,2.35 nM,"H-Y[Aib]EGTFTSDYSI[Aib]LEKQAQ[Aib]AFVEWLIK([εLys-γGlu-γGlu-γGlu-γGlu-γGlu-γGlu-C20 diacid])GGPSSGASLRHYYN[Aib]LTRQRY-NH2 [Compound 218, Y-Aib-E-G-T-F-T-S-D-Y-S-I-Aib-L-E-K-Q-A-Q-Aib-A-F-V-E-W-L-I-K(1,3)-G-G-P-S-S-G-A-S-L-R-H-Y-Y-N-Aib-L-T-R-Q-R-Y-NH2.C20DA-gGlu-gGlu-gGlu-gGlu-gGlu-gGlu-eLys(1,2)]"
0.15 nM,,0.33 nM,,"I: H-Y[Aib]EGTFTSDYSI[Aib]LEKQAQ[Aib]AFVEWLIKGGPSEGASLRHYYNWLTRQRY-NH2 / II: {C18 diacid}-EEEEEE (amide I:28-II:C) [Compound 302, Y-Aib-E-G-T-F-T-S-D-Y-S-I-Aib-L-E-K-Q-A-Q-Aib-A-F-V-E-W-L-I-K(1,3)-GGPSEGASLRHYYNWLTRQRY-NH2.C18DA-E-E-E-E-E-E(1,2)]"
0.13 nM,6.74 nM,0.23 nM,,"H-Y[Aib]EGTFTSDYSI[Aib]LEKQAQ[Aib]AFVQWLIK([γGlu-γGlu-γGlu-γGlu-γGlu-C20 diacid])GGPESGASLRHYYNWLTRQRY-NH2 [Compound 29, Y-Aib-E-G-T-F-T-S-D-Y-S-I-Aib-L-E-K-Q-A-Q-Aib-A-F-V-Q-W-L-I-K(1,3)-GGPESGASLRHYYNWLTRQRY-NH2.C20DA-gGlu-gGlu-gGlu-gGlu-gGlu(1,2)]"
0.08 nM,,0.17 nM,1.01 nM,"H-Y[Aib]EGTFTSDYSI[Aib]LEKQAQ[Aib]AFVQWLIK([γGlu-γGlu-γGlu-γGlu-C18 diacid])GGPSEGASLRHYYNWLTRQRY-NH2 [Compound 268, Y-Aib-E-G-T-F-T-S-D-Y-S-I-Aib-L-E-K-Q-A-Q-Aib-A-F-V-Q-W-L-I-K(1,3)-GGPSEGASLRHYYNWLTRQRY-NH2.C18DA-gGlu-gGlu-gGlu-gGlu(1,2)]"
0.11 nM,1.6 nM,0.14 nM,1.15 nM,"H-Y[Aib]EGTFTSDYSI[Aib]LEEQAQ[Aib]AFVQWLIK([εLys-AEEA-γGlu-γGlu-γGlu-γGlu-γGlu-C20 diacid])GGPSSGASLRHYYNWLTRQRY-NH2 [Compound 45, Y-Aib-E-G-T-F-T-S-D-Y-S-I-Aib-L-E-E-Q-A-Q-Aib-A-F-V-Q-W-L-I-K(1,3)-GGPSSGASLRHYYNWLTRQRY-NH2.C20DA-gGlu-gGlu-gGlu-gGlu-gGlu-OEG-eLys(1,2)]"
